Tests used:
[1] = type: physicochemical
Experimental: In addition to examination of solutions for clarity, aged samples (2 months@ 25° C.) were examined chromatographically for degradation.
In order to elucidate possible degradation components, solutions of active components were subjected to forced degradation conditions of acid, base, and peroxide at elevated temperature.
Samples containing ivermectin and clorsulon were prepared in acetonitrile and subjected to acid (a few drops of phosphoric acid), alkaline (a few drops of 1N sodium hydroxide) and peroxide (a small amount of t-butyl peroxide or hydrogen peroxide) degradation conditions. Samples were first analyzed for signs of degradation after a few days at ambient temperature. If, after this time there were no signs of degradation the samples were further ‘stressed’ by storage at 40° C.

[2] = Preliminary stability of Table 3 formulations at 50° C.; type: physicochemical; conditions: addition of glycerol formal
Experimental: Larger batches (100 mL) of formulations were made for use in preliminary stability studies.
Eprinomectin was also included in the formulation studies at the same end product concentration as ivermectin (0.5% w/v). The formulations shown in Table 3 were monitored for stability.
In order to evaluate the stability of formulations, analytical methods (described below) were developed to assay each active ingredient and monitor any degradation.
This HPLC assay was developed as an external standardization method which involves volumetric dilution of an accurately weighed amount of standard material and sample. The chromatographic method comprises an isocratic elution and detection of analyte components using the run parameters below: […]

Relative stability of the two active compounds [1]	Molecule	Stabilization of eprinomectin in formulation [2]
more stable	Nc1cc(C(Cl)=C(Cl)Cl)c(S(N)(=O)=O)cc1S(N)(=O)=O [clorsulon, 4-amino-6-trichloroethenyl-1,3-benzene disulfonamide]	–
–	eprinomectin	stabilized by the addition of glycerol formal

From patent US8097266B2, “Solvent systems for pour-on formulations for combating parasites” (Merial Limited, priority 2007, dated 2012)
